# Experimental data as given in patent publication US20250276984A1, “SOLID STATE FORMS OF HER2 INHIBITORS” (Iambic Therapeutics, Inc., priority 2024, published 2025).
# Experiments:
# [1] = Dynamic vapor sorption (DVS); assay type: physicochemical; design: Hysteresis: unit not given here
# Description: By DVS, a weight gain of 2.8 weight %, consistent with a gain of 0.9 mol water, was observed from 6% to 95% RH. A complete desorption was observed from 95% to 6% RH. No significant hysteresis was observed. The resulting crystalline material was analyzed by XRPD and shown to the Form A.
# [2] = Solubility estimated by solvent aliquot addition at ambient temperature; assay type: physicochemical; details: thermodynamic from solid
# Description: Solubilities were estimated by solvent aliquot addition at ambient temperature and reported to the nearest whole number; if complete dissolution was achieved by one aliquot addition, the value is reported as “>”; if solids were present, the value is reported as “<”. The actual solubility may be larger than the value calculated because of the use of solvent aliquots that were too large or due to a slow rate of dissolution.
# [3] = Cycle 1, target RH 95.0%, sample RH 95.4%
structure (smiles),measurement,setting,value
"Cc1cc(Nc2ncnn3ccc(C4CCN(C(=O)/C=C/CN(C)C)CC4)c23)ccc1Oc1ccn2ncnc2c1 [Compound 1 Form A, (E)-1-(4-(4-((4-([1,2,4]triazolo[1,5-a]pyridin-7-yloxy)-3-methylphenyl)amino)pyrrolo[2,1-f][1,2,4]triazin-5-yl)piperidin-1-yl)-4-(dimethylamino)but-2-en-1-one]",Sorp Mass Change,"[1]; Cycle 1, target RH 5.0%, sample RH 5.5%",0.004%
same,Desorp Mass Change,"[1]; Cycle 1, target RH 5.0%, sample RH 5.8%",−0.017%
same,Hysteresis,"[1]; Cycle 1, target RH 15.0%",−0.006
same,Desorp Mass Change,"[1]; Cycle 1, target RH 15.0%, sample RH 15.3%",0.271%
same,Sorp Mass Change,"[1]; Cycle 1, target RH 15.0%, sample RH 15.5%",0.277%
same,Hysteresis,"[1]; Cycle 1, target RH 25.0%",0.039
same,Sorp Mass Change,"[1]; Cycle 1, target RH 25.0%, sample RH 24.6%",0.609%
same,Desorp Mass Change,"[1]; Cycle 1, target RH 25.0%, sample RH 25.0%",0.648%
same,Hysteresis,"[1]; Cycle 1, target RH 35.0%",0.075
same,Sorp Mass Change,"[1]; Cycle 1, target RH 35.0%, sample RH 34.3%",1.034%
same,Desorp Mass Change,"[1]; Cycle 1, target RH 35.0%, sample RH 34.8%",1.109%
same,Hysteresis,"[1]; Cycle 1, target RH 45.0%",0.104
same,Sorp Mass Change,"[1]; Cycle 1, target RH 45.0%, sample RH 44.4%",1.470%
same,Desorp Mass Change,"[1]; Cycle 1, target RH 45.0%, sample RH 44.9%",1.573%
same,Hysteresis,"[1]; Cycle 1, target RH 55.0%",0.123
same,Sorp Mass Change,"[1]; Cycle 1, target RH 55.0%, sample RH 54.3%",1.811%
same,Desorp Mass Change,"[1]; Cycle 1, target RH 55.0%, sample RH 54.8%",1.934%
same,Hysteresis,"[1]; Cycle 1, target RH 65.0%",0.112
same,Sorp Mass Change,"[1]; Cycle 1, target RH 65.0%, sample RH 64.4%",2.087%
same,Desorp Mass Change,"[1]; Cycle 1, target RH 65.0%, sample RH 64.9%",2.199%
same,Hysteresis,"[1]; Cycle 1, target RH 75.0%",0.116
same,Sorp Mass Change,"[1]; Cycle 1, target RH 75.0%, sample RH 74.5%",2.315%
same,Desorp Mass Change,"[1]; Cycle 1, target RH 75.0%, sample RH 75.1%",2.431%
same,Hysteresis,"[1]; Cycle 1, target RH 85.0%",0.096
same,Sorp Mass Change,"[1]; Cycle 1, target RH 85.0%, sample RH 85.1%",2.559%
same,Desorp Mass Change,"[1]; Cycle 1, target RH 85.0%, sample RH 86.2%",2.656%
same,Desorp Mass Change,[1]; [3],2.849%
same,Sorp Mass Change,[1]; [3],2.849%
same,water gain consistent with DVS weight gain,[1]; from 6% to 95% RH,0.9 mol water
same,weight gain by DVS,[1]; from 6% to 95% RH,2.8 weight %
same,solubility,"[2]; aqueous with cosolvent or surfactant or cyclodextrin, 10:90 dioxane/water v/v",< 1 mg/mL
same,solubility,"[2]; aqueous with cosolvent or surfactant or cyclodextrin, 20:80 MeOH/water v/v",< 1 mg/mL
same,solubility,"[2]; aqueous with cosolvent or surfactant or cyclodextrin, 35:65 THF/water v/v",17 mg/mL
same,solubility,"[2]; aqueous with cosolvent or surfactant or cyclodextrin, 50:50 ACN/water v/v",> 72 mg/mL
same,solubility,"[2]; aqueous with cosolvent or surfactant or cyclodextrin, 50:50 DMAc/water v/v",10 mg/mL
same,solubility,"[2]; aqueous with cosolvent or surfactant or cyclodextrin, 50:50 MeOH/water v/v",4 mg/mL
same,solubility,"[2]; aqueous with cosolvent or surfactant or cyclodextrin, 50:50 THF/water v/v",> 31 mg/mL
same,solubility,"[2]; aqueous with cosolvent or surfactant or cyclodextrin, 50:50 acetone/water v/v",24 mg/mL
same,solubility,"[2]; aqueous with cosolvent or surfactant or cyclodextrin, 50:50 dioxane/water v/v",29 mg/mL
same,solubility,"[2]; organic solvent or mixture, 2-MeTHF",5 mg/mL
same,solubility,"[2]; organic solvent or mixture, 10:90 chloroform/IPA v/v",27 mg/mL
same,solubility,"[2]; organic solvent or mixture, 20:80 MeOH/EtOAc v/v",> 51 mg/mL
same,solubility,"[2]; organic solvent or mixture, 30:70 DCM/toluene v/v",9 mg/mL
same,solubility,"[2]; organic solvent or mixture, 30:70 DMAc/MTBE v/v",29 mg/mL
same,solubility,"[2]; organic solvent or mixture, 30:70 EtOH/toluene v/v",> 88 mg/mL
same,solubility,"[2]; organic solvent or mixture, 50:50 DCM/toluene v/v",50 mg/mL
same,solubility,"[2]; organic solvent or mixture, 50:50 DMAc/toluene v/v",> 28 mg/mL
same,solubility,"[2]; organic solvent or mixture, 50:50 EtOAc/IPA v/v",17 mg/mL
same,solubility,"[2]; organic solvent or mixture, 50:50 EtOAc/MIBK v/v",4 mg/mL
same,solubility,"[2]; organic solvent or mixture, 70:30 THF/heptane v/v",10 mg/mL
same,solubility,"[2]; organic solvent or mixture, ACN",7 mg/mL
same,solubility,"[2]; organic solvent or mixture, Acetone",15 mg/mL
same,solubility,"[2]; organic solvent or mixture, DCM",> 88 mg/mL
same,solubility,"[2]; organic solvent or mixture, DMAc",> 110 mg/mL
same,solubility,"[2]; organic solvent or mixture, EtOAc",3 mg/mL
same,solubility,"[2]; organic solvent or mixture, IPA",3 mg/mL
same,solubility,"[2]; organic solvent or mixture, MIBK",3 mg/mL
same,solubility,"[2]; organic solvent or mixture, MTBE",< 1 mg/mL
same,solubility,"[2]; organic solvent or mixture, MeOH",> 116 mg/mL
same,solubility,"[2]; organic solvent or mixture, THF",38 mg/mL
same,solubility,"[2]; organic solvent or mixture, chloroform",> 100 mg/mL
same,solubility,"[2]; organic solvent or mixture, cyclohexane",< 1 mg/mL
same,solubility,"[2]; organic solvent or mixture, dioxane",32 mg/mL
same,solubility,"[2]; organic solvent or mixture, heptane",< 2 mg/mL
same,solubility,"[2]; organic solvent or mixture, toluene",< 1 mg/mL
same,solubility,[2]; water,< 1 mg/mL
